Values quoted from earlier work, collected in patent US20090017120A1, “Phase stable lecithin organogel composition” (Humco Holding Group, Inc., priority 2007, published 2009).

Details: 20% wt/vol pluronic gels, pH 7, 20° C.

For COc1ccc2c(c1)c(CC(=O)O)c(C)n2C(=O)c1ccc(Cl)cc1 [indomethacin], the “time to 10% indomethacin degradation” value is listed as 2.7 years.
